Measurements reported in publication PMC10590756, “Glutarate regulates T cell metabolism and anti-tumour immunity” (Nature Metabolism, 2023).

What was measured:
[1] = system: 5hmC (the reaction product of TET2) in human CD8^+ T cells; assay: 5hmC staining by flow cytometry; type: cell-based; details: DEG 7 days, dose-dependent
Protocol: For 5-hydroxymethylcytosine (5hmC) staining, cells were stained for surface antigens as above and then fixed and permeabilized with the Transcription Factor Buffer Set. Next cells were incubated with 4 M HCl for 10 min at room temperature. Cells were then thoroughly washed and incubated in blocking buffer (0.1% PBS-Triton X-100, 5% FCS) for 30 min at 4 °C. Cells were then incubated with primary anti-5hmC (catalogue no. 10013602, Active Motif) overnight at 4 °C and the day after with secondary antibody for 1 h at room temperature. Flow cytometry was then performed as explained above. Cells were sorted on an FACSAria III (BD Biosciences) after surface antigen staining as described above. Data were analysed using FlowJo v.10.7.2.

[2] = target: T1, PDHE2 lipoate in human CD8^+ T cells (Homo sapiens, UniProt P10515); assay: PDHE2 lipoate western blot; type: cell-based; details: 500 µM DEG, 24 h
T1 construct: We treated human CD8^+ T cells with DEG and observed reduced PDHE2 lipoate level; endogenous in cells; host or cells: primary human CD8+ T cells
T1 sequence (P10515 87-647): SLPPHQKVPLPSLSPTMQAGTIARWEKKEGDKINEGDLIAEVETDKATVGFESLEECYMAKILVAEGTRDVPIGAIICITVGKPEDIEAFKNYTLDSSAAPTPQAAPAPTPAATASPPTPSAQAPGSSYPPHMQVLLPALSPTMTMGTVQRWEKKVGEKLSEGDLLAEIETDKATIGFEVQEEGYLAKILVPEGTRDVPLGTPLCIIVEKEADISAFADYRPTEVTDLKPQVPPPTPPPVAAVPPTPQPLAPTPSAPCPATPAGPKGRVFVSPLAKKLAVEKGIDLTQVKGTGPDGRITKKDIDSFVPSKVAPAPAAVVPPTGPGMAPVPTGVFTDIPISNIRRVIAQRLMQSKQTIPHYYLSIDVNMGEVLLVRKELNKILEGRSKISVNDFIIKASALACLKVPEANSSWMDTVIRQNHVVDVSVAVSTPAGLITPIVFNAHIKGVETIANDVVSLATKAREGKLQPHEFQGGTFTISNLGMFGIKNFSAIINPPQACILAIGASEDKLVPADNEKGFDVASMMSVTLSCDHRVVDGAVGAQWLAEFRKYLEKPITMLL
Protocol: Lipoic acid western blotting was performed as above with the following alterations: blocking buffer and secondary antibody buffer (5% milk plus 1% fatty acid free bovine serum albumin (BSA) (catalogue no. BP9704100, Thermo Fisher Scientific) prepared in PBS plus 0.05% Tween-20); and primary antibody buffer (2% fatty acid free BSA prepared in PBS plus 0.05% Tween-20). Lipoic acid antibody was used at a concentration of 1:2,000 (catalogue no. 437695, Sigma-Aldrich). Data were analysed using the iBright Analysis Software v.4.0.1 or ImageJ.

[3] = system: CD8^+ T cells; assay: Seahorse analysis of ECAR and OCR (GST, MST, fuel flex test); type: cell-based, human
Protocol: To explore further the metabolic consequences of this observed glutarate-induced reduction in PDHc activity, we performed a glycolysis stress test (GST). Acute effects were determined by treating CD8^+ T cells with DEG for 30 min while plated in the Seahorse XF Analyzer. Chronic effects were determined by performing a standard GST in CD8^+ T cells that had been cultured with DEG for 7 days before assay.
To better understand the consequences of providing glutarate as a fuel for mitochondrial oxidation, we measured cellular oxygen consumption while inhibiting, in different combinations, fatty acid, glucose and glutamine oxidation, the three main fuel sources for mitochondrial oxidation (Extended Data Fig. 4i). This was achieved via injection of etomoxir, UK5099 and Bis-2-(5-phenylacetamido-1,3,4-thiadiazol-2-yl)ethyl sulphide (BPTES), respectively, in cells plated in a Seahorse XF Analyzer.
A Seahorse XFe bioanalyzer was used to measure the OCR and ECAR. A total of 1.5 × 10^5 CD8^+ T cells per well were spun onto poly-D-lysine-coated (catalogue no. P7280, Sigma-Aldrich) Seahorse plates and preincubated at 37 °C for a minimum of 30 min in the absence of CO2 in Seahorse XF RPMI medium, pH 7.4 (10376-100, Agilent), supplemented with 10 mM glucose (catalogue no. A2494001, Thermo Fisher Scientific) and 2 mM glutamine (catalogue no. 25030081, Thermo Fisher Scientific). A minimum of five technical replicates per biological replicate were used. For the MST and GST, OCR and ECAR were measured under basal conditions and after the addition of the following: 750 µM DEG (catalogue no. QB-1473, Combi-block), 0.05% DMSO, 1 μM oligomycin (catalogue no. 75351, Sigma-Aldrich), 1.5 μM FCCP (catalogue no. C2920, Sigma-Aldrich), 100 nM rotenone + 1 μM antimycin A (catalogue nos. R8875 and A8674, Sigma-Aldrich), 10 mM glucose and 50 mM 2-DG (catalogue no. B1048-100, BioVision) as indicated. To assess mitochondrial fuel use, OCR was measured subsequent to the addition of the following drugs in different combinations as indicated: 3 µM BPTES (catalogue no. SML0601, Sigma-Aldrich), 2 µM UK-5099 (catalogue no. PZ0160, Sigma-Aldrich) and 4 µM etomoxir (catalogue no. E1905, Sigma-Aldrich). Assay parameters were as follows: 3 min mix, no wait, 3 min measurement, repeated 3–5 times at basal and after each addition. Measurements were taken using a 96-well Extracellular Flux Analyzer (Seahorse Bioscience).

[4] = fuel flex test, 500 µM DEG, 7 days, other fuel sources limited

CCOC(=O)CCCC(=O)OCC [DEG, Diethyl glutarate]
5hmC levels [1]: decrease
PDHE2 lipoate level [2]: reduced
maximal OCR, cells treated 7 days with DEG ([3]; 500 µM DEG, 7 days): reduced maximal OCR
basal oxygen consumption rates (OCRs) ([3]; 500 µM DEG, acute and chronic, with or without glucose and glutamine): either maintained or increased
basal extracellular acidification rate (ECAR) ([3]; DEG 30 min (acute) or 7 days (chronic)): increases
glycolytic rate (GST), acute exposure ([3]; DEG 30 min in the Seahorse XF Analyzer): increased glycolytic rate
effect of FCCP on OCR (MST), cells treated acutely with DEG ([3]; acute DEG): did not have an effect
glycolytic rate (GST), chronic exposure ([3]; cultured with DEG for 7 days): increased glycolytic rate
dependence on fatty acid, glucose and glutamine oxidation ([3]; fuel flex test, 500 µM DEG, 7 days): not more dependent
capacity to oxidize fatty acids [3, 4]: increased capacity
capacity to oxidize glucose [3, 4]: increased capacity
